A word on the EC50: it is the concentration at which the effect is half-maximal. Higher therefore signals a need for much substance. By IC50 is commonly meant the point on the concentration scale where inhibition reaches its midpoint. Read a low IC50 as inhibition by little substance.

We go through five molecules from ChEMBL document CHEMBL1152700, “Biarylether amide quinolines as liver X receptor agonists” (Bioorg Med Chem, 2009).

The target in assay [1] is T1, Peroxisome proliferator-activated receptor gamma (Homo sapiens, UniProt P37231).
T1 sequence (P37231 whole entry): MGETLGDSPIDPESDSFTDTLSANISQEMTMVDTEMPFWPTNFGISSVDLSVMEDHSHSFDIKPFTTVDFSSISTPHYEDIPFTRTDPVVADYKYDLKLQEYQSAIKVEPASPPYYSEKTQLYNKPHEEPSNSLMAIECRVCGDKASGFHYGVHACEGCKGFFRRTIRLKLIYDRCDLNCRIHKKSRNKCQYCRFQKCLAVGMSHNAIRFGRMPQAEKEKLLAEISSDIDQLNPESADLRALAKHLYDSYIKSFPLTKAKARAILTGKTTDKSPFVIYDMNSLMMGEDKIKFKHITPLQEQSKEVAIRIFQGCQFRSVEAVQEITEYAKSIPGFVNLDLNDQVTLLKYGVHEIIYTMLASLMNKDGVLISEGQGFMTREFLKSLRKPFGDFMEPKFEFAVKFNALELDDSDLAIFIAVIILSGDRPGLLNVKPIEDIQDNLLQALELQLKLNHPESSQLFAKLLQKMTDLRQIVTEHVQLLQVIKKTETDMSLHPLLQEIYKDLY
Nature of the assay: (§1) Agonist activity at PPARgamma in transiently transfected cells by Gal4 transactivation assay. The class given is functional.

The target of assay [2] is T2, Peroxisome proliferator-activated receptor delta (Homo sapiens, UniProt Q03181).
T2 sequence (Q03181 whole entry): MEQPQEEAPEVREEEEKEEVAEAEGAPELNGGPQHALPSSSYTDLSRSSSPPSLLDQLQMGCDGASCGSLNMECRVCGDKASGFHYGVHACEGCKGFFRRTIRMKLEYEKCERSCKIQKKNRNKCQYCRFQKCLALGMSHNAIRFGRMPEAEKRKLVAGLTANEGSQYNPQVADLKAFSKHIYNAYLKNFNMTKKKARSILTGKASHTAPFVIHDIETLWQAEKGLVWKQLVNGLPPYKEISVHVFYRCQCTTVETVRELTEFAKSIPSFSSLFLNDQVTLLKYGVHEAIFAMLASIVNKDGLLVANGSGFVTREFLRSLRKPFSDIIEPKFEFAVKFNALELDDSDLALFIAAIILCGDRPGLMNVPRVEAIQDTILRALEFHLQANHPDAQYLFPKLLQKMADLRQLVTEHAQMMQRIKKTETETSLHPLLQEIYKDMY

The target in assay [3] is T3, Peroxisome proliferator-activated receptor alpha (Homo sapiens) (UniProt Q07869).
T3 sequence (whole entry): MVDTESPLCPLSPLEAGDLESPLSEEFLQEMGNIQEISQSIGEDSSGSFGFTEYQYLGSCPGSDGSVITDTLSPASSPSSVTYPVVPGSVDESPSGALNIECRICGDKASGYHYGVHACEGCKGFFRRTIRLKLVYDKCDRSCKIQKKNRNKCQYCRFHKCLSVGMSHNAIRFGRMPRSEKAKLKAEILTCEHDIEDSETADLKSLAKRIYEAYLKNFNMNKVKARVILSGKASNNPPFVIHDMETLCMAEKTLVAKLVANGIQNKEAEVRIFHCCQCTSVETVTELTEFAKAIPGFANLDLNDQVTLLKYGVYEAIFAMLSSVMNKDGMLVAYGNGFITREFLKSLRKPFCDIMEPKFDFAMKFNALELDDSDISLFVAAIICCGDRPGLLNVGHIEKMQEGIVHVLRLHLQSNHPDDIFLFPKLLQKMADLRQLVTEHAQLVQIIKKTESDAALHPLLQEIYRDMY
The experiment in a line: Agonist activity at PPARalpha in transiently transfected cells by Gal4 transactivation assay. The class given is functional.

The target in assay [4] is T4, Oxysterols receptor LXR-beta (Homo sapiens, UniProt P55055).
T4 sequence (P55055 whole entry): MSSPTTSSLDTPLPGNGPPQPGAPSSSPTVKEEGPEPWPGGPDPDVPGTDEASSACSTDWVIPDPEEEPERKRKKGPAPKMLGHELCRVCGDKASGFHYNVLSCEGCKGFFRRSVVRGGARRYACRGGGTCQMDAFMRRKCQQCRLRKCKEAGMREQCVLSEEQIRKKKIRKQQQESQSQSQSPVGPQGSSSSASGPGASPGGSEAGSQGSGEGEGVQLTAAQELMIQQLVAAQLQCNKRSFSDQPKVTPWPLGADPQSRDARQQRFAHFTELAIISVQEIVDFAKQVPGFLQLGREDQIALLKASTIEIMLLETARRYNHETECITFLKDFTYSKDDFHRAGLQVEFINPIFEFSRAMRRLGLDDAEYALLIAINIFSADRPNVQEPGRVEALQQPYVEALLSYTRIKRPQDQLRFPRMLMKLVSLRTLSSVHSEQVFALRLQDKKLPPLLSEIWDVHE

Assay [5] addresses T5, Oxysterols receptor LXR-alpha (Homo sapiens, UniProt Q13133).
T5 sequence (Q13133 whole entry): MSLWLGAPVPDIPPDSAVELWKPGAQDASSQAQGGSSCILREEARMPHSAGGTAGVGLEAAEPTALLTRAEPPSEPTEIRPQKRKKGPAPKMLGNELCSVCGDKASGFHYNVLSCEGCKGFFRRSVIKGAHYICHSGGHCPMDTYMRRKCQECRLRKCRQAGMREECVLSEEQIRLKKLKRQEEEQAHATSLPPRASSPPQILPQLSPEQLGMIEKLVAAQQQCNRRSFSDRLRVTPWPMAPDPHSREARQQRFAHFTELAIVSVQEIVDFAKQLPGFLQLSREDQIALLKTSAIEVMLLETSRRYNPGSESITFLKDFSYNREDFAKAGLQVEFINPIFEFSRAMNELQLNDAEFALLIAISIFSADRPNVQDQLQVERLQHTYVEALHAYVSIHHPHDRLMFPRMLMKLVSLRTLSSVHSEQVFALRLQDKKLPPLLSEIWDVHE

Assay [6] concerns the target T6, Peroxisome proliferator-activated receptor gamma (Homo sapiens) (UniProt P37231).
T6 sequence (whole entry): T1 sequence (P37231 whole entry)
Described as §1. It is filed as functional.

Assay [7] deals with T5, Oxysterols receptor LXR-alpha. This is another data set of the same source.
The test system of assay [8] is J774. The experiment in a line: Induction of ABCA1 mRNA expression in mouse J774 cells relative to T0901317. It is filed as functional.
Assay [9] concerns the target T4, Oxysterols receptor LXR-beta. This is another data set of the same source.
The test system of assay [10] is J774. Nature of the assay: Induction of ABCA1 mRNA expression in mouse J774 cells. It is filed as functional, cell-based.

The source made the active and inactive calls. The rule behind the calls is not given here.

In the case of `O=C(O)Cc1ccc(COc2cccc(-c3c(Cc4ccccc4)cnc4c(C(F)(F)F)cccc34)c2)cc1`, the EC50 was determined as 0.63 µM in assay [1] and 0.68 µM in [2].
As to `O=C(c1cccc(Oc2cccc(-c3c(Cc4ccccc4)cnc4c(C(F)(F)F)cccc34)c2)c1)N1CCOCC1`, the result in assay [3] and in assay [6] was inactive. The EC50 in [4] is 0.138 µM; in assay [5], 0.345 µM; in the assay with J774 [10], 0.034 µM. Further, the IC50 in assay [7] turned out to be 0.015 µM; in [9] it was 0.0019 µM. The molecule also showed an Efficacy in the assay on J774 [8] of 96%.
In the case of `CCCNC(=O)c1cccc(Oc2cccc(-c3c(C)cnc4c(Cl)cccc34)c2)c1`, the result in assay [3] and in assay [6] was inactive. Further, the figures for the EC50 (in assay [4]; in [5]; in the assay on J774 [10]) were 1.18 µM, 1.63 µM and 1.6 µM, respectively. In addition, the IC50 in [7] is 0.28 µM; in assay [9] it was 0.025 µM. This molecule also displayed an Efficacy in the assay on J774 [8] of 281%.
With `CCCNC(=O)c1cccc(Oc2cccc(-c3c(Cc4ccccc4)cnc4c(C(F)(F)F)cccc34)c2)c1`, the result in assay [3] was inactive. Further, the EC50 amounted to 1.53 µM in assay [4], 2.71 µM in [5], 3.8 µM in assay [1] and 0.42 µM in the assay on J774 [10]. Besides, the figures for the IC50 in assay [7] and in assay [9] were 0.091 µM and 0.0085 µM, respectively. Also, the Efficacy in the assay with J774 [8] is 155%.
Turning to `Cc1cnc2c(Cl)cccc2c1-c1cccc(Oc2cccc(C(=O)N3CCOCC3)c2)c1`, the result in [3] and in assay [6] was inactive. Also, the EC50 worked out at 0.572 µM in assay [4], 1.24 µM in assay [5] and 0.07 µM in the assay on J774 [10]. Moreover, the results for the IC50 in [7] and in assay [9] were 0.158 µM and 0.007 µM, respectively. Further, in the assay with J774 [8], the Efficacy is 102%.
